# Where “and” joins values, the source holds several entries; their conditions need not be identical. Equal values may be shown once.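 Five compound concentrations were applied to cells in 96-well plates for 48 hours; endpoints were derived by simple linear interpolation of the resulting dose-response curve. The concentration for 50% growth inhibition is given as GI50. The concentration for full growth arrest is given as TGI.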
# How the values were obtained:
# Experiment in all cases: inhibition of tumour cell growth, NCI panel, 48 h
# [1] = tested on: HL-60(TB) leukemia
# [2] = tested on: ACHN renal
# [3] = tested on: OVCAR-5 ovarian
# [4] = tested on: TK-10 renal
# [5] = tested on: NCI-H522 lung
# [6] = tested on: SF-539 CNS
# [7] = tested on: MDA-MB-231 breast
# [8] = tested on: OVCAR-8 ovarian
# [9] = tested on: T-47D breast
# [10] = tested on: MCF7 breast
SMILES,GI50 [1],TGI [1],TGI [2],GI50 [3],TGI [3],TGI [4],GI50 [5],TGI [5],GI50 [6],TGI [6],TGI [7],GI50 [8],TGI [8],TGI [9],GI50 [10],TGI [10],GI50 [2],GI50 [4],GI50 [7],GI50 [9]
CC1=C2C(=CO[C@H](C)[C@H]2C)C(=O)C(C(=O)O)=C1O,25.3 µM,59 µM and 25.7 µM,46.7 µM,29.5 µM,73 µM and 128 µM,63.7 µM,18.5 µM,36.4 µM and 34.4 µM,23.9 µM,30.3 µM and 59.2 µM,58.5 µM,19.8 µM,43.3 µM and 35.2 µM,> 94.5 µM,24.5 µM,52.8 µM and 51.9 µM,,,,
CCOC(=O)c1cc2c([N+](=O)[O-])c(N)ccc2s1,,> 100 µM,> 100 µM,,> 100 µM,> 100 µM,,> 100 µM,,> 100 µM,> 100 µM,,> 100 µM,> 100 µM,,> 100 µM,,,,
COc1cnc2c(c1)C(=O)c1c-2n(CCCNCCO)c(=O)c2ccncc12,2.74 µM,11.4 µM,9.93 µM,2.74 µM,20.5 µM,19.3 µM,0.607 µM,7.26 µM,1.4 µM,6.95 µM,10.9 µM,0.876 µM,23.7 µM,37.5 µM,0.303 µM,11.3 µM,0.553 µM,2.05 µM,1.95 µM,0.845 µM
Cc1ccc(S(=O)CC(CF)OCn2cc(C)c(=O)[nH]c2=O)cc1 (centres undefined),,> 100 µM,> 100 µM,,> 100 µM,> 100 µM,,> 100 µM,,> 100 µM,> 100 µM,,> 100 µM,> 100 µM,,> 100 µM,,,,
O=[N+]([O-])c1cccc(N=Nc2c(O)c(S(=O)(=O)O)cc3cc(S(=O)(=O)O)ccc23)c1,,> 100 µM,> 100 µM,,> 100 µM,> 100 µM,,> 100 µM,,> 100 µM,> 100 µM,,> 100 µM,> 100 µM,,> 100 µM,,,,
COc1ccc(C(SC2C(O)C(CO)OC2n2ccc(=O)[nH]c2=O)(c2ccccc2)c2ccc(OC)cc2)cc1 (centres undefined),,68.4 µM,81.5 µM,,39.7 µM,57 µM,,31.9 µM,,39.2 µM,31 µM,,45.5 µM,48.7 µM,,43.7 µM,,,,
CC(C)=CCNc1nc(Cl)nc2nc[nH]c12,,> 100 µM,> 100 µM,,> 100 µM,> 100 µM,,> 100 µM,,> 100 µM,68.2 µM,,> 100 µM,> 100 µM,,> 100 µM,,,,
COC(=O)C1C(=O)N(C)C(=O)N2CCCC12 (centres undefined),,> 100 µM,> 100 µM,,> 100 µM,> 100 µM,,> 100 µM,,> 100 µM,> 100 µM,,> 100 µM,> 100 µM,,> 100 µM,,,,
C=C(C)CC1(O[Si](C)(C)C)C(=O)C(OCC)=C1OCC (centres undefined),,> 100 µM,> 100 µM,,> 100 µM,> 100 µM,,> 100 µM,,> 100 µM,> 100 µM,,> 100 µM,> 100 µM,,> 100 µM,,,,
COc1cc(C2C3=C(COC3=O)Oc3cc4c(cc32)OCO4)cc(OC)c1O (centres undefined),,0.294 µM,22.9 µM,,39.4 µM,63.8 µM,,< 0.088 µM,,< 0.0148 µM,> 24.9 µM,,1.05 µM,60.3 µM,,> 48.2 µM,,,,
O=C1c2c(O)cccc2-c2nn(CCNCCO)c3ccc(NCCNCCO)c1c23,,0.123 µM,0.992 µM,,2.85 µM,7.08 µM,,0.164 µM,,1.1 µM,2.51 µM,,4.24 µM,4.61 µM,,3.15 µM,,,,
CCOC(=O)Nn1c(CC#N)nnc1Cc1ccccc1,,> 100 µM,> 100 µM,,> 100 µM,> 100 µM,,> 100 µM,,> 100 µM,> 100 µM,,> 100 µM,> 100 µM,,> 100 µM,,,,
CC(Oc1ccccc1Cl)C(=O)NN1C(=O)CSC1c1ccccc1 (centres undefined),,83.7 µM,> 100 µM,,> 100 µM,> 100 µM,,> 100 µM,,> 100 µM,> 100 µM,,> 100 µM,> 100 µM,,> 100 µM,,,,
CN(C)CCn1c(CO)nc2c1c(=O)n(C)c(=O)n2C,,> 100 µM,> 100 µM,,> 100 µM,> 100 µM,,> 100 µM,,> 100 µM,> 100 µM,,> 100 µM,> 100 µM,,> 100 µM,,,,
Cc1cc2c([nH]c3ccccc32)c(O)c1-c1c(C)cc2c([nH]c3ccccc32)c1O,32.9 µM,55 µM,27.3 µM,15 µM,29 µM,31.2 µM,,31.5 µM,,31.7 µM,33 µM,,30.4 µM,31.3 µM,11.2 µM,25 µM,,,,
NCC(O)CSCc1ccc(Cl)cc1 (centres undefined),,> 100 µM,> 100 µM,,> 100 µM,> 100 µM,,> 100 µM,,,> 100 µM,,> 100 µM,> 100 µM,,> 100 µM,,,,
COc1ccc(Nc2ccc3ccccc3c2-c2c(O)ccc3ccccc23)cc1,,55.2 µM,29.8 µM,,31.8 µM,75.3 µM,,32.8 µM,,51.1 µM,45.7 µM,,33.6 µM,34 µM,,25.6 µM,,,,
O=C1OC[C@H]2[C@@H]1[C@H]1O[C@@H]2C2=C(CCC2)C1=O,,> 100 µM,> 100 µM,,> 100 µM,> 100 µM,,> 100 µM,,> 100 µM,> 100 µM,,> 100 µM,> 100 µM,,> 100 µM,,,,
COc1cc(C2c3cc4c(cc3C3OC[C@@H]2C3CO)OCO4)cc(OC)c1OC (some centres undefined),,18.7 µM,> 100 µM,,> 100 µM,> 100 µM,,47.8 µM,17.7 µM,37.3 µM,> 100 µM,,> 100 µM,> 100 µM,,> 100 µM,,,,
Cc1nnc2n1N=C(c1ccc(Cl)cc1Cl)/C(=C/c1ccc(-c3ccc([N+](=O)[O-])cc3Cl)o1)S2,25.1 µM,62.9 µM,34.6 µM,16.5 µM,30.9 µM,34.8 µM,20.9 µM,44.9 µM,18.5 µM,36.6 µM,30.6 µM,18.1 µM,41.5 µM,> 100 µM,2.06 µM,14.3 µM,18.5 µM,18.4 µM,12.2 µM,83 µM

SMILES,GI50 [1],TGI [1],TGI [2],GI50 [3],TGI [3],TGI [4],GI50 [5],TGI [5],GI50 [6],TGI [6],TGI [7],GI50 [8],TGI [8],TGI [9],GI50 [10],TGI [10],GI50 [2],GI50 [4],GI50 [7],GI50 [9]
Cc1ccccc1N=C(N)Nc1ccccc1C,,> 100 µM,> 100 µM,,> 100 µM,> 100 µM,,> 100 µM,,> 100 µM,> 100 µM,,> 100 µM,> 100 µM,,> 100 µM,,,,
COc1ccc2cc(CNCCCCCCNCc3ccc4cc(OC)ccc4c3)ccc2c1,,0.396 µM,2.92 µM,,2.03 µM,3.28 µM,,1.76 µM,,3.05 µM,1.38 µM,,1.15 µM,2.07 µM,,1.2 µM,,,,
NN=C(CC(O)(C(F)(F)Cl)C(F)(F)Cl)CC(O)(C(F)(F)Cl)C(F)(F)Cl,,> 10 µM,> 10 µM,,> 10 µM,> 10 µM,,> 10 µM,,> 10 µM,> 10 µM,,> 10 µM,> 10 µM,,> 10 µM,,,,
CCOP(=O)(O)CN1CCNCCN(CP(=O)(O)OCC)CCNCC1,,> 100 µM,> 100 µM,,> 100 µM,> 100 µM,,> 100 µM,,> 100 µM,> 100 µM,,> 100 µM,> 100 µM,,> 100 µM,,,,
C=CCOn1c(C=C)nc2ccc(C)cc21,,22.2 µM,59.6 µM,,41.7 µM,32.4 µM,,32.9 µM,,,48.1 µM,,> 100 µM,43.5 µM,,24.9 µM,,,,
C=CCP(=O)(CC=C)C(Cl)Cl,,> 100 µM,> 100 µM,,> 100 µM,> 100 µM,,> 100 µM,,,> 100 µM,,> 100 µM,> 100 µM,,> 100 µM,,,,
CC(=O)Nc1ccc(OC/C(N)=N/NC(=O)c2ccncc2)cc1,,> 100 µM,> 100 µM,,> 100 µM,> 100 µM,,> 100 µM,,> 100 µM,> 100 µM,,> 100 µM,> 100 µM,,> 100 µM,,,,
CN(C)Cc1cc(C(=O)/C=C/c2ccccc2)cc(CN(C)C)c1O,,42.3 µM,> 100 µM,,> 100 µM,> 100 µM,,40.8 µM,,46.5 µM,58.1 µM,,99.8 µM,> 100 µM,,> 100 µM,,,,
O=C(Cc1ccc(Cl)c(Cl)c1)NCC1(N2CCCCC2)CCCCC1,,> 100 µM,> 100 µM,,> 100 µM,> 100 µM,,> 100 µM,,,> 100 µM,,> 100 µM,89.7 µM,,> 100 µM,,,,
CN(C)/N=N/c1nc2c(c(=O)n(C)c(=O)n2C)n1CC(O)CO (centres undefined),,> 100 µM,> 100 µM,,> 100 µM,> 100 µM,,> 100 µM,,,> 100 µM,,> 100 µM,> 100 µM,,> 100 µM,,,,
C=C=C(CC(CC(=C)Br)(C(=O)OC)C(=O)OC)S(=O)(=O)c1ccccc1,,> 100 µM,6.83 µM,,3.43 µM,4.8 µM,,1.76 µM,,3.33 µM,4.93 µM,,3.44 µM,> 100 µM,,16.4 µM,,,,
COc1ccc(OC)c(SC(CC(=O)c2ccccc2)c2ccccc2)c1 (centres undefined),,> 100 µM,39 µM,,33.5 µM,32.7 µM,,29.2 µM,,15.7 µM,25.7 µM,,28.7 µM,35.8 µM,,13.7 µM,,,,
CN1C(=O)C(O)C[C@@H]1c1ccccc1 (some centres undefined),,> 100 µM,> 100 µM,,> 100 µM,> 100 µM,,> 100 µM,,> 100 µM,> 100 µM,,> 100 µM,> 100 µM,,> 100 µM,,,,
Cc1nc(N)c(N2CCN(CN)CC2)c(=O)[nH]1,,> 100 µM,> 100 µM,,> 100 µM,> 100 µM,,> 100 µM,,> 100 µM,> 100 µM,,> 100 µM,> 100 µM,,> 100 µM,,,,
O=C(c1cccs1)N1CCN(C(=O)c2cccs2)C1=S,,5.2 µM,20.5 µM,,30.3 µM,19 µM,,35.8 µM,,4.84 µM,18.1 µM,,21.4 µM,23.8 µM,,14.8 µM,,,,
Nc1ccc(S(=O)(=O)Nc2nc3ccccc3nc2N2CCCCCC2)cc1,,52 µM,> 100 µM,,> 100 µM,> 100 µM,,> 100 µM,,35.7 µM,> 100 µM,,> 100 µM,> 100 µM,,> 100 µM,,,,
N#Cc1cc2c(n(C3OC(CO)C(O)C(O)C3O)c1=S)CCCCCC2 (centres undefined),,> 100 µM,> 100 µM,,> 100 µM,> 100 µM,,> 100 µM,,> 100 µM,> 100 µM,,> 100 µM,> 100 µM,,> 100 µM,,,,
O=C(Nc1ccccc1C(=O)NCc1ccccc1)/C(=C/c1ccccc1)NC(=O)c1ccccc1,,> 100 µM,> 100 µM,,> 100 µM,> 100 µM,,> 100 µM,,> 100 µM,> 100 µM,,> 100 µM,> 100 µM,,> 100 µM,,,,
C/C(=N\NC(=S)N(C)C)c1cccnn1,,> 100 µM,0.474 µM,,> 57.3 µM,> 100 µM,,> 100 µM,,1.65 µM,> 100 µM,,> 100 µM,> 100 µM,,> 45 µM,,,,
COc1ccc(-c2oc3cc(O)cc(O)c3c(=O)c2OC)cc1,,38.4 µM,> 100 µM,,> 100 µM,> 100 µM,,9.7 µM,,,> 100 µM,,> 100 µM,> 100 µM,,> 100 µM,,,,

# — PubChem BioAssay (NCI)
